Reference: ChEMBL document CHEMBL3046455, “Synthesis and pharmacological evaluation of some novel 4-isopropyl thiazole-based sulfonyl derivatives as potent antimicrobial and antitubercular agents” (Med Chem Res, 2013)
Converted amounts (≈) assume the structure as drawn.

What was measured:
[1] = test system: Pseudomonas aeruginosa; experiment: Antibacterial activity against Pseudomonas aeruginosa ATCC 10145 after 24 hr by broth microdilution method; type: functional; settings: ATCC 10145, 24 h
[2] = test system: Klebsiella pneumoniae; experiment: Antibacterial activity against Klebsiella pneumoniae ATCC 10031 after 24 hr by broth microdilution method; type: functional; settings: ATCC 10031, 24 h
[3] = test system: Saccharomyces cerevisiae; experiment: Antifungal activity against Saccharomyces cerevisiae ATCC 9763 after 24 hr by broth microdilution method; type: functional; settings: ATCC 9763, 24 h
[4] = test system: Bacillus subtilis; experiment: Antibacterial activity against Bacillus subtilis ATCC 60511 after 24 hr by broth microdilution method; type: functional; settings: ATCC 60511, 24 h
[5] = test system: Enterococcus faecalis; experiment: Antibacterial activity against Enterococcus faecalis ATCC 14506 after 24 hr by broth microdilution method; type: functional; settings: ATCC 14506, 24 h
[6] = test system: Escherichia coli; experiment: Antibacterial activity against Escherichia coli ATCC 10536 after 24 hr by broth microdilution method; type: functional; settings: ATCC 10536, 24 h
[7] = test system: Staphylococcus aureus; experiment: Antibacterial activity against Staphylococcus aureus ATCC 11632 after 24 hr by broth microdilution method; type: functional; settings: ATCC 11632, 24 h
[8] = test system: Aspergillus niger; experiment: Antifungal activity against Aspergillus niger ATCC 6275 after 24 hr by broth microdilution method; type: functional; settings: ATCC 6275, 24 h
[9] = test system: Mycobacterium tuberculosis; experiment: Antitubercular activity against Mycobacterium tuberculosis H37Rv after 21 days by broth microdilution method; type: functional; settings: 504 h
[10] = test system: Candida tropicalis; experiment: Antifungal activity against Candida tropicalis ATCC 1369 after 24 hr by broth microdilution method; type: functional; settings: ATCC 1369, 24 h
[11] = test system: A549; experiment: Cytotoxicity against Homo sapiens (human) A549 cells at […] by MTT assay relative to control; type: cell-based

SMILES	MIC [1] [mg/L]	MIC [2] [mg/L]	MIC [3] [mg/L]	MIC [4] [mg/L]	MIC [5] [mg/L]	MIC [6] [mg/L]	MIC [7] [mg/L]	MIC [8] [mg/L]	MIC [9] [mg/L]	MIC [10] [mg/L]	Activity [11] [%]
CC(C)c1csc(-c2nnc(S(=O)(=O)Cc3cc(Cl)ccc3F)n2-c2ccccc2)n1	8 (≈ 16.8 µM)	8 (≈ 16.8 µM)	16 (≈ 33.5 µM)	31.2 (≈ 65.5 µM)	31.2 (≈ 65.5 µM)	4 (≈ 8.39 µM)	16 (≈ 33.5 µM)	31.2 (≈ 65.5 µM)	4 (≈ 8.39 µM)	16 (≈ 33.5 µM)	–
CC(C)c1csc(-c2nnc(S(=O)(=O)Cc3ccc(Br)cc3F)n2/N=C/c2c(F)cccc2F)n1	8 (≈ 13.7 µM)	31.2 (≈ 53.5 µM)	16 (≈ 27.4 µM)	16 (≈ 27.4 µM)	31.2 (≈ 53.5 µM)	16 (≈ 27.4 µM)	31.2 (≈ 53.5 µM)	16 (≈ 27.4 µM)	8 (≈ 13.7 µM)	16 (≈ 27.4 µM)	–
CC(C)c1csc(-c2nnc(S(=O)(=O)Cc3ccc(Cl)cc3)n2/N=C/c2c(F)cccc2F)n1	62.5 (≈ 120 µM)	31.2 (≈ 59.9 µM)	62.5 (≈ 120 µM)	8 (≈ 15.3 µM)	31.2 (≈ 59.9 µM)	8 (≈ 15.3 µM)	31.2 (≈ 59.9 µM)	31.2 (≈ 59.9 µM)	8 (≈ 15.3 µM)	16 (≈ 30.7 µM)	–
CC(C)c1csc(-c2nnc(S(=O)(=O)Cc3ccc(C(F)(F)F)cc3)n2/N=C/c2ccc(Cl)cc2)n1	4 (≈ 7.22 µM)	16 (≈ 28.9 µM)	4 (≈ 7.22 µM)	4 (≈ 7.22 µM)	8 (≈ 14.4 µM)	8 (≈ 14.4 µM)	4 (≈ 7.22 µM)	4 (≈ 7.22 µM)	4 (≈ 7.22 µM)	8 (≈ 14.4 µM)	50
CC(C)c1csc(-c2nnc(S(=O)(=O)Cc3ccc(Cl)cc3)n2/N=C/c2ccc(F)cc2)n1	16 (≈ 31.7 µM)	31.2 (≈ 62 µM)	31.2 (≈ 62 µM)	4 (≈ 7.94 µM)	4 (≈ 7.94 µM)	16 (≈ 31.7 µM)	8 (≈ 15.9 µM)	31.2 (≈ 62 µM)	8 (≈ 15.9 µM)	31.2 (≈ 62 µM)	–
CC(C)c1csc(-c2nnc(S(=O)(=O)Cc3ccc(Cl)cc3)n2/N=C/c2ccc(Cl)cc2)n1	8 (≈ 15.4 µM)	31.2 (≈ 60 µM)	16 (≈ 30.7 µM)	31.2 (≈ 60 µM)	8 (≈ 15.4 µM)	62.5 (≈ 120 µM)	8 (≈ 15.4 µM)	8 (≈ 15.4 µM)	8 (≈ 15.4 µM)	8 (≈ 15.4 µM)	–
CC(C)c1csc(-c2nnc(S(=O)(=O)Cc3ccc(Br)cc3)n2/N=C/c2c(F)cccc2F)n1	8 (≈ 14.1 µM)	8 (≈ 14.1 µM)	62.5 (≈ 110 µM)	16 (≈ 28.2 µM)	16 (≈ 28.2 µM)	8 (≈ 14.1 µM)	31.2 (≈ 55.2 µM)	8 (≈ 14.1 µM)	8 (≈ 14.1 µM)	8 (≈ 14.1 µM)	–
CC(C)c1csc(-c2nnc(S(=O)(=O)Cc3ccc(Br)cc3)n2/N=C/c2ccc(F)cc2)n1	62.5 (≈ 114 µM)	8 (≈ 14.6 µM)	31.2 (≈ 57 µM)	8 (≈ 14.6 µM)	62.5 (≈ 114 µM)	8 (≈ 14.6 µM)	62.5 (≈ 114 µM)	125 (≈ 228 µM)	8 (≈ 14.6 µM)	31.2 (≈ 57 µM)	–
CC(C)c1csc(-c2nnc(S(=O)(=O)Cc3ccc(C(F)(F)F)cc3)n2/N=C/c2c(F)cccc2F)n1	8 (≈ 14.4 µM)	16 (≈ 28.8 µM)	16 (≈ 28.8 µM)	8 (≈ 14.4 µM)	16 (≈ 28.8 µM)	4 (≈ 7.2 µM)	8 (≈ 14.4 µM)	8 (≈ 14.4 µM)	0.5 (≈ 0.9 µM)	4 (≈ 7.2 µM)	50
CC(C)c1csc(-c2nnc(S(=O)(=O)Cc3ccc(Br)cc3)n2-c2ccccc2)n1	8 (≈ 15.9 µM)	16 (≈ 31.8 µM)	16 (≈ 31.8 µM)	16 (≈ 31.8 µM)	16 (≈ 31.8 µM)	16 (≈ 31.8 µM)	8 (≈ 15.9 µM)	16 (≈ 31.8 µM)	8 (≈ 15.9 µM)	16 (≈ 31.8 µM)	–
NNC(=O)c1ccncc1 [ISONIAZID]	–	–	–	–	–	–	–	–	0.25 (≈ 1.82 µM)	–	–
CCn1cc(C(=O)O)c(=O)c2cc(F)c(N3CCNCC3)cc21 [NORFLOXACIN]	≤ 5	≤ 1	–	≤ 1	≤ 5	≤ 1	≤ 5	–	–	–	–
O=C(O)c1cn(C2CC2)c2cc(N3CCNCC3)c(F)cc2c1=O [CIPROFLOXACIN]	≤ 5	≤ 1	–	≤ 1	≤ 5	≤ 1	≤ 5	–	–	–	–
